Measured values published in publication PMC10016662 (PLOS Pathogens, 2023).
Read-outs that look alike come from different tables or passages of the source.

Molecular target: T1, HRTV Gc (Heartland virus, UniProt J3WAX0)
T1 construct: gene GP
Assay: biochemical
Format: binding

T1 sequence (J3WAX0 567-999 limits assumed): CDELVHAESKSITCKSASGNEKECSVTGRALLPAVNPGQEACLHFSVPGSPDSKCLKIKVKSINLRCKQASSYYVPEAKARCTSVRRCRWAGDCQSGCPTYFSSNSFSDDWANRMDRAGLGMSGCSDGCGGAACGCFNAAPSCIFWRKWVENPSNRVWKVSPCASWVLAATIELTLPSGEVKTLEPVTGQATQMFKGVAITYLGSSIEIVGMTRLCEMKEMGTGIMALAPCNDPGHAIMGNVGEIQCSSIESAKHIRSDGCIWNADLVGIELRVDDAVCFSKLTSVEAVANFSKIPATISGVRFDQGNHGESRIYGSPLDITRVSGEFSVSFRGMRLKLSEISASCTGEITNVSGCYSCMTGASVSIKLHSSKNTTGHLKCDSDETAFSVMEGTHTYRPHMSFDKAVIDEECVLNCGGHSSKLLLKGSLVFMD

With GlcCer the Kd (read-out: KD) was < 0.001 µM.

With GalCer the Kd (read-out: KD) was 0.6 µM.

CCCCCCCC/C=C\CCCCCCCC(=O)OC[C@H](COP(=O)([O-])OCC[N+](C)(C)C)OC(=O)CCCCCCC/C=C\CCCCCCCC [DOPC] was tested, and the Kd was 2.1 µM.
